Each structure is given as a SMILES string. Like-named read-outs stand apart in the source and are kept apart here. Bounds are passed on as bounds.

One may read the IC50 as the midpoint of a concentration-inhibition curve.

Experiment [1] has as its target T1, androgen receptor (AR) (Homo sapiens, UniProt P10275).
T1 sequence (P10275 1-920): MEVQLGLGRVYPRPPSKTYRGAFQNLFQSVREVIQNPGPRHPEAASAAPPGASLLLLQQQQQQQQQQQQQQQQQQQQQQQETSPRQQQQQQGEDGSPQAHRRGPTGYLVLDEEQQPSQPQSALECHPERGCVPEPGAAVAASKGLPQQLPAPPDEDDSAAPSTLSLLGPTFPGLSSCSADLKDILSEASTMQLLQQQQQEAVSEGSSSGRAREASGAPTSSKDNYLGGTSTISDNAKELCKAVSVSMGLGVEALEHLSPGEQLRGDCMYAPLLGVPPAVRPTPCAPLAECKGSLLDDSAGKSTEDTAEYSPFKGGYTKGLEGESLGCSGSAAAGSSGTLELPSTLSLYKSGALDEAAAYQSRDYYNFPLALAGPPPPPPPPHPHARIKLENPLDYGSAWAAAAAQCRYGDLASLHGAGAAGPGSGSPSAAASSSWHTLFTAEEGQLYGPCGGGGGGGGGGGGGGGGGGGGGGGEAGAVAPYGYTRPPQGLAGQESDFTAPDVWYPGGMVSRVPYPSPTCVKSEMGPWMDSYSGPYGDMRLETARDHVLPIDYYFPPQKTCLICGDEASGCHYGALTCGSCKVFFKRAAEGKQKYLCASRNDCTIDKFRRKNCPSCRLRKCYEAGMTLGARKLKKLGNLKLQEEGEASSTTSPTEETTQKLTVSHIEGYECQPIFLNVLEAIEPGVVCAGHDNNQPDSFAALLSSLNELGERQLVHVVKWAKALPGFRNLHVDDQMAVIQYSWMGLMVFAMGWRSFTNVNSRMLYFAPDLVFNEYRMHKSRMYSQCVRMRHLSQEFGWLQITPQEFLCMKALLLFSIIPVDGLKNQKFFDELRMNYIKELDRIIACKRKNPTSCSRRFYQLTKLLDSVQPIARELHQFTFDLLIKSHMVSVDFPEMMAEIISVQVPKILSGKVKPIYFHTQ
Description: MDA-MB-453 Androgen Receptor Transactivation Assay (PSA-Luc reporter, 3 nM DHT). It counts as cell-based. The following applies: MDA-MB-453 cells, antagonism in presence of 3 nM DHT, 48 hour incubation. The source says: Compounds can be tested in a cell based transactivation assay used to measure the antagonism of androgen receptor (AR) transcriptional activity. The transactivation assay provides a means of identifying antagonists that inhibit the effects of the native hormone dihydrotestosterone (DHT). […] The pGL3 PSA-Luc reporter plasmid is comprised of the cDNA for the firefly luciferase gene and the upstream promoter sequences containing the androgen response elements (AREs) of the prostate specific antigen (PSA). This plasmid functions as a reporter for the transcription-modulating activity of the AR. In order to detect antagonists, the transactivation assay is conducted in the presence of constant concentration of the natural AR hormone (DHT) to induce a defined reporter signal. Addition of increasing concentrations of the suspected antagonist will decrease the reporter signal (luciferase activity).
MDA-MB-453 and 22 RV1 cells were maintained in DMEM (Cellgro, Cat. #10-014-CM) or RPMI 1640 (Gibco Cat. #11875-085) respectively and supplemented with 10% FBS (Invitrogen/GIBCO Life Science). Cells were bulk transfected in flasks with 1.3 ug/ml pGL3 PSA-Luc plasmid by using the Lipofectamine 2000 Reagent (Invitrogen, Cat. #11668-019) and serum-free Opti-MEM I media (Invitrogen, Cat #31985-070) according to the manufacturer's optimized conditions. Transfection was conducted at 37° C. with 5% CO2 for 16-18 hours. Following transfection, cells are washed, treated with trypsin, counted, and seeded in a 96-well plate at 30,000 cells per well in DMEM containing 10% Charcoal/Dextran Treated Fetal Bovine Serum (Gibco Cat. #11054-020) for MDA-MB-453 cells or RPMI 1640 (Gibco Cat. #110835) containing 10% FBS (Invitrogen/GIBCO Life Science) for 22 RV1 cells.
Following transfection, cells were incubated in the absence (blank) or presence (control) of 3 nM DHT (Sigma, Cat. #A-8380) and in the presence or absence of the standard antiandrogen bicalutamide or test compounds ranging in concentrations from 10^−10 to 10^−5M. Duplicates were used for each sample. The compound dilutions were performed by the Tecan Genesis (Tecan, Triangle Park, N.C.). After a 48 hour incubation, luciferase activity was measured using the Steady-Glo Luciferase Assay System (Promega, Cat. #E2550) according to manufacturer's specifications and luminescence was measured on a Packard TopCount (PerkinElmer). For each luciferase sample reading, the percent control (in absence of compounds) was calculated as: % Control=100×[averagesample−averageblank]/[averagecontrol−averageblank] Data was plotted and the IC50 value was defined as the concentration of compound that inhibited 50% of the luciferase activity for the controls.
Compounds described herein were tested in the AR transactivation assay described immediately above, using MDA-MB-453 cells.

The subject of experiment [2] is immature castrated male rats. Kind of experiment: Immature Rat Prostate Weight (IRPW) Assay. It is filed as in vivo, rat (Sprague-Dawley). To be noted: for response vs control in vivo at 3 mg/kg: Rattus norvegicus, 96 h, read-out: IRPW SV/FB (% control); for EC50 (increase in organ weight, VP and SV): dosing for 3 days.
[3] abbreviates: immature castrated rats, 3 mpk PO QD × 4 days.

Consider `C[C@]12O[C@@]3(CCO[C@H]4[C@@H]3[C@@H]1C(=O)N4c1ccc(C#N)c(C(F)(F)F)c1)[C@H](NS(C)(=O)=O)[C@H]2O` [Example 246, N-((1R,2R,3R,4S,5S,8S,12R)-7-(4-Cyano-3-(trifluoromethyl)phenyl)-3-hydroxy-4-methyl-6-oxo-9,13-dioxa-7-azatetracyclo[6.3.1.1^1,4.0^5,12]tridec-2-yl)methanesulfonamide], for which the IC50 in experiment [1] worked out at 280 nM. Also, the response vs control in vivo at 3 mg/kg in experiment [2] (po) is 98%. Take `CCS(=O)(=O)N[C@H]1C[C@@]2(C)O[C@@]13CCO[C@H]1[C@@H]3[C@@H]2C(=O)N1c1ccc(C#N)c(Br)c1` [Example 179, N-((1R,2S,4R,5S,8S,12R)-7-(3-Bromo-4-cyanophenyl)-4-methyl-6-oxo-9,13-dioxa-7-azatetracyclo[6.3.1.1^1,4.0^5,12]tridec-2-yl)ethanesulfonamide]: in experiment [1] (read-out: IC50), the IC50 was found to be 141 nM. Also, the response vs control in vivo at 3 mg/kg in experiment [2] (setting [3]) came out at 31%. The corresponding values for `CCS(=O)(=O)N[C@H]1C[C@@]2(C)O[C@@]13CCO[C@H]1[C@@H]3[C@@H]2C(=O)N1c1ccc(C#N)c(OC(F)(F)F)c1` [Example 188, N-((1R,2S,4R,5S,8S,12R)-7-(4-Cyano-3-(trifluoromethoxy)phenyl)-4-methyl-6-oxo-9,13-dioxa-7-azatetracyclo[6.3.1.1^1,4.0^5,12]tridec-2-yl)ethanesulfonamide] are 383 nM and 33%.

Turning to `C[C@@]12C[C@H](O)[C@]3(CO[C@H]4[C@@H]3[C@@H]1C(=O)N4c1ccc(C#N)c(C(F)(F)F)c1)O2` [Example 38, 4-((1S,4S,7S,8R,10S,11R)-10-Hydroxy-8-methyl-6-oxo-3,12-dioxa-5-azatetracyclo[5.3.1.1^1,8.0^4,11]dodec-5-yl)-2-(trifluoromethyl)benzonitrile], the half-maximal inhibitory concentration (IC50) in experiment [1] is 1090 nM.

For `C[C@]12CC[C@@]3(CCO[C@@H]4[C@H]3[C@H]1C(=O)N4c1ccc(C#N)c(C(F)(F)F)c1)O2` [Example 51, 4-((1S,4S,5R,8R,12S)-4-methyl-6-oxo-9,13-dioxa-7-azatetracyclo[6.3.1.1^1,4.0^5,12]tridec-7-yl)-2-(trifluoromethyl)benzonitrile], the IC50 in experiment [1] was 1810 nM. With `C[C@]12O[C@@]3(CCO[C@H]4[C@@H]3[C@@H]1C(=O)N4c1cc(Cl)cc(Cl)c1)C[C@H]2O` [Example 149, (1S,3R,4S,5S,8S,12R)-7-(3,5-dichlorophenyl)-3-hydroxy-4-methyl-9,13-dioxa-7-azatetracyclo[6.3.1.1^1,4.0^5,12]tridecan-6-one], the 50% inhibitory concentration (IC50) in experiment [1] (read-out: IC50) was determined as 1100 nM. On to `C[C@@]12C[C@H](O)[C@]3(CCO[C@H]4[C@@H]3[C@@H]1C(=O)N4c1ccc(F)c(Cl)c1)O2` [Example 15, (1R,2S,4R,5S,8S,12R)-7-(3-chloro-4-fluorophenyl)-2-hydroxy-4-methyl-9,13-dioxa-7-azatetracyclo[6.3.1.1^1,4.0^5,12]tridecan-6-one], for which the IC50 in experiment [1] (read-out: IC50) is 10500 nM. In the case of `CNS(=O)(=O)N[C@H]1C[C@@]2(C)O[C@@]13CCO[C@H]1[C@@H]3[C@@H]2C(=O)N1c1ccc(C#N)c(Cl)c1` [Example 47, N-((1R,2S,4R,5S,8S,12R)-7-(3-Chloro-4-cyanophenyl)-4-methyl-6-oxo-9,13-dioxa-7-azatetracyclo[6.3.1.1^1,4.0^5,12]tridec-2-yl)-N′-methylsulfamide], the IC50 in experiment [1] is 1610 nM. Still for that read-out and setting: then `C[C@@]12C[C@H](NC(=O)OCCO)[C@]3(CCO[C@H]4[C@@H]3[C@@H]1C(=O)N4c1ccc(C#N)c(C(F)(F)F)c1)O2` [Example 162, 2-Hydroxyethyl ((1R,2S,4R,5S,8S,12R)-7-(4-cyano-3-(trifluoromethyl)phenyl)-4-methyl-6-oxo-9,13-dioxa-7-azatetracyclo[6.3.1.1^1,4.0^5,12]tridec-2-yl)carbamate], with 1960 nM; and `C[C@@]12O[C@]3(CCO[C@@H]4[C@H]3[C@H]1C(=O)N4c1ccc(C#N)c(C(F)(F)F)c1)C[C@H]2N` [Example 13, 4-((1S,3R,4R,5R,8R,12S)-3-amino-4-methyl-6-oxo-9,13-dioxa-7-azatetracyclo[6.3.1.1^1,4.0^5,12]tridec-7-yl)-2-(trifluoromethyl)benzonitrile], with more than 7500 nM. Regarding `CCNC(=O)[C@]12C(=O)N(c3ccc(C#N)c(C(F)(F)F)c3)[C@@H]3OCC[C@@]4(C[C@H](O)[C@]1(C)O4)[C@@H]32` (single isomer, unassigned) [Example 22], the IC50 in experiment [1] was more than 7500 nM. As for `C[C@]12CC[C@H]3[C@@H](CCC4=CC(=O)CC[C@@]43C)[C@@H]1CC[C@@H]2O` [T, testosterone, reference compound], the “EC50 (increase in organ weight, VP and SV)” value in experiment [2] (immature castrated rats) was “about 1 mg”. On to `C[C@@]12C[C@H](O)[C@]3(CCO[C@H]4[C@@H]3[C@]1(C(=O)OCc1ccccc1)C(=O)N4c1ccc(C#N)c(C(F)(F)F)c1)O2` [Example 23, Benzyl (1R,2S,4R,5R,8S,12R)-7-(4-cyano-3-(trifluoromethyl)phenyl)-2-hydroxy-4-methyl-6-oxo-9,13-dioxa-7-azatetracyclo[6.3.1.1^1,4.0^5,12]tridecane-5-carboxylate], for which the concentration for half-maximal inhibition (IC50) in experiment [1] turned out to be 1200 nM. Take `N#Cc1ccc(N2C(=O)[C@@H]3[C@@H]4[C@H]2OCC[C@@]42CC[C@@H]3O2)cc1C(F)(F)F` (single isomer, unassigned) [Example 53]: the IC50 in experiment [1] was found to be 1200 nM. The same measure, in the same setting: then `C[C@@]12O[C@]3(CCO[C@@H]4[C@H]3[C@H]1C(=O)N4c1ccc(C#N)c(C(F)(F)F)c1)C[C@@H]2O` (single isomer, unassigned) [Example 2], with 11000 nM. Same read-out and setting: then `CCS(=O)(=O)N[C@H]1C[C@@]2(C)O[C@@]13CCO[C@H]1[C@@H]3[C@@H]2C(=O)N1c1ccc(C#N)c(C(F)(F)F)c1F` [Example 190, N-((1R,2S,4R,5S,8S,12R)-7-(4-Cyano-2-fluoro-3-(trifluoromethyl)phenyl)-4-methyl-6-oxo-9,13-dioxa-7-azatetracyclo[6.3.1.1^1,4.0^5,12]tridec-2-yl)ethanesulfonamide], with 2270 nM. Regarding `C[C@@]12O[C@]3(CCO[C@]4(C)[C@H]3[C@H]1C(=O)N4c1ccc(C#N)c(C(F)(F)F)c1)C[C@@H]2O` (single isomer, unassigned) [Example 26], the IC50 in experiment [1] is more than 7500 nM. In the case of `CCC(=O)O[C@H]1CC[C@H]2[C@@H]3CCC4=CC(=O)CC[C@]4(C)[C@H]3CC[C@]12C` [TP, Testosterone Propionate, reference compound], the “potency relative to free T” value in experiment [2] (TP versus free T, immature castrated rats) was 10-30 fold. For the same molecule, the “EC50 (increase in organ weight, VP and SV)” value in experiment [2] (immature castrated rats) is on record as approximately 0.03 mg.
